Experimental data taken from article PMC10063609, “Discovery of novel cardiac troponin activators using fluorescence polarization-based high throughput screening assays” (Scientific Reports, 2023).
Structures can show the parent of a compound that is named as a salt. Where two headings read alike, the source gives them in different places.

Assays:
[1] = target: T1, interaction between cTnC and switch peptide of cTnI (cTnISP) (Homo sapiens, UniProt P63316); assay: Fluorescence polarization HTS and dose-response, cTnC/FAM-cTnISP; format: binding; conditions: for FP (mP): cTnISP primary screen, single concentration 50 μmol/L; for Effect on FP from a mixture of FAM-cTnISP and cTnC: dose-response, concentration dependent (Fig. 2a)
Method: (§1) Each compound was tested at a concentration of 50 μmol/L and 10 μmol/L for the cTnISP and cTnIAR screen, respectively. Hits were defined as compounds that changed the average FP value more than five-times the standard deviation (SD) (Fig. 1d, red lines). Moreover, compounds that either increased or decreased the total fluorescence intensity (FI) more than five-times the SD were removed from further analysis, indicating either compound aggregation or unspecific interactions with the fluorophore or protein complex.
(§2) Libraries were reformatted from 96-well plates to Greiner 384-well black plates using a GILSON PipetMax. The plates were sealed with adhesive foil and stored at − 20 °C until further use. […] A total of 40 nL of 10 mmol/L compound stocks were transferred to each well using a Mosquito liquid handler system (final DMSO concentration of 0.1% (v/v)). The plates were incubated in the dark for 30 min at 25 °C, and the fluorescence polarization from each well was measured using a ClarioStar Plate reader with appropriate excitation and emission filter settings. Dose–response curves were constructed by serial dilution of compounds in DMSO and adding a fixed volume to a mixture of peptide and cTnC.
(§3) Fluorescence polarization dose–response and binding experiments were performed in Greiner 384-well black plates in assay buffer (20 mmol/L Tris–HCl pH 7, 100 mmol/L NaCl, 1 mmol/L CaCl2, 1 mmol/L DTT) at 25 °C.

[2] = system: bovine cardiac myofibrils; assay: NADH-coupled ATPase activity of isolated cardiac myofibrils; format: biochemical; conditions: for Effect on ATPase activity of cardiac myofibrils: submaximal calcium activation (~30% of maximum), pCa 6, up to 100 μmol/L; for Decrease of myofibrilar ATPase activity / Effect on myofibrillar ATPase activity: sub-maximal activation (~70% of maximal); for Decrease of myofibrilar ATPase activity: pCa 5.8; for Effect on myofibrillar ATPase activity: pCa 5.8, up to 100 μmol/L
Method: Bovine cardiac myofibrils (CMF) were freshly prepared from bovine ventricle as previously described[49]. The NADH-coupled ATPase assay was adapted to test the effects of drugs on bovine cardiac myofibrils[50]. Briefly, buffers with varying free [Ca^2+] were prepared by adding the appropriate concentrations of EGTA and CaCl2 calculated using the MAXCHELATOR software. ATPase assays for hits identified in the cTnI switch peptide and anchoring region screens were performed at pCa 6 and pCa 5.8, respectively. […] 20 μL Enzyme mix was added to individual wells using a 12-well multichannel pipette. Appropriate concentrations of drugs were added to each well and the plate was shaken at 1000 rpm for 5 min on a plate shaker and further incubated at room temperature for 10 min. Substrate mix was dispensed into each well using the Gilson PipetMax. The plate was briefly spun down to ensure removal of air bubbles. The reaction was followed by recording the fluorescence intensity of each well with excitation at 380 nm and emission at 470 nm, for 10 min scanning the plate every 30 s. The temperature was kept constant at 25 °C. ATPase rates were extracted by linear regression to datapoints in GraphPad Prism.

[3] = target: interaction between cTnC and the anchoring region of cTnI (cTnIAR) (Homo sapiens, UniProt P63316); assay: Fluorescence polarization HTS, binding and dose-response, cTnC/FAM-cTnIAR; conditions: for FP (mP): cTnIAR primary screen, single concentration 10 μmol/L; for FP at higher drug concentrations: > 10 μmol/L, potentially assay interference; for Total fluorescence intensity of the assay mixture: concentrations of up to 100 μmol/L, 2 nmol/L FAM-cTnIAR, 5 nmol/L cTnC; for Effect on FP from the cTnC FAM-cTnIAR mixture: dose-response, concentration dependent (Fig. 2c)
Method: as §1, §2, §3

Ca2+-saturated cTnC = Ca2+-saturated cTnC (Homo sapiens, UniProt P63316); assay: ITC binding to full length Ca2+-saturated cTnC; conditions: for Kd: means ± SEM, n = 3
[4] = system: demembranated human donor ventricular tissue; assay: Force-pCa titrations of demembranated human donor myocardium; format: cell-based; conditions: 100 μmol/L, 2 μm sarcomere length
Method: We tested for the functional effects of hit compounds by measuring the calcium sensitivity of force development of chemically demembranated human donor ventricular tissue at 2 μm sarcomere length in the absence and in the presence of 100 μmol/L compounds (Fig. 6). Force-pCa (pCa = −log10[Ca^2+]) relations for each preparation was measured in the absence and in the presence of each compound, so that each muscle preparation served as its own control.
Briefly, each demembranated cardiac muscle strip underwent a control force-pCa titration in the absence of compounds with the sarcomere length adjusted to about 2 µm by laser diffraction. Drugs were freshly diluted in DMSO and added to physiological buffer solutions. The final DMSO concentration was held constant at 0.2% (v/v). Subsequently, demembranated human heart muscle strips were equilibrated in relaxing solution (pCa 7) containing the appropriate concentrations of drugs for 25 min at 22 °C and the force-pCa titration repeated. Thus, each cardiac muscle strip served as its own negative control and force data were normalized to the maximal force of each preparation in the absence of compounds.

[5] = Solubility in aqueous buffer; format: physicochemical
Method: Figure S2. […] D MSO stocks of NS5806 were diluted with assay
buffer to the indicated concentrations (fixed DMSO concentration of 0.1% (v/v)), potential
aggregates removed by ultra -centrifugation and the absorbance at 296 nm plotted against the
in aqueous buffers up to a concentration of at least 500 µmol/L. (B) Total fluorescent intensity
dose-response curves for Claramine (red) and Furamidine (green) in the presence of 2 nmol/L
(1 picture or pasted object on this page, not shown here)

cTnC-cTnIAR interaction = cTnC-cTnIAR interaction (Homo sapiens, UniProt P63316); assay: ITC titration of unlabelled cTnIAR peptide into cTnC without or with compound
CcTnC = system: CcTnC; design: method as in PMID 11320096, PMID 10913289; conditions: cited from earlier work
[6] = system: CcTnC and cTnIAR interaction; design: method as in PMID 11320096, PMID 10913289; conditions: NMR spectroscopy; cited from earlier work
[7] = target: Ca2+-saturated N-lobe of cTnC; design: method as in PMID 35755445; conditions: isolated Ca2+-saturated N-lobe of cTnC; cited from earlier work
Ca2+-saturated cChimera = system: Ca2+-saturated cChimera; design: method as in PMID 35755445; conditions: cited from earlier work
[8] = target: T1, interaction between cTnC and switch peptide of cTnI (cTnISP); design: method as in PMID 33315370; conditions: printed in Fig. 1c; assay previously published; cited from earlier work

CC(C)c1cccc(C(C)C)c1N1C(=O)c2ccc(O)cc2C1=O [5-HPP-33]
FP (mP) ([1]; LOPAC 1280 library): 112 mP | Effect on FP from a mixture of FAM-cTnISP and cTnC [1]: increased the FP | Effect on ATPase activity of cardiac myofibrils [2]: no or little activation

O=C(NCc1ccc(C(F)(F)F)cc1)Nc1cccc2cnccc12 [A 425619]
FP (mP) ([3]; TOCRIScreen library): 105.5 mP

O=C(O)C[C@H]1CC[C@H](c2ccc(NC(=O)c3nnc(Nc4ccc(F)c(F)c4)o3)cc2)CC1 [AZD 3988]
FP (mP) ([3]; TOCRIScreen library): 115.5 mP

O=C(O)c1ccc(/C=C2\SC(=S)N(c3cccc(C(F)(F)F)c3)C2=O)cc1 [CFTR Inh172]
FP (mP) ([1]; TOCRIScreen library): 127.9 mP | Effect on FP from a mixture of FAM-cTnISP and cTnC [1]: increased the FP | Effect on ATPase activity of cardiac myofibrils [2]: no or little activation

N.N.O=C([O-])C1(C(=O)[O-])CCC1.[Pt+2] [Carboplatin]
FP (mP) ([3]; ENZO Screenwell library): 67.3 mP

[H]/N=C(\N/C(=N/[H])NCCCCCCNC(=N)NC(=N)Nc1ccc(Cl)cc1)Nc1ccc(Cl)cc1 [Chlorhexidine Dihydrochloride]
FP (mP) ([3]; ENZO Screenwell library): 58.8 mP

N.N.[Cl][Pt][Cl] [Cisplatin, Cis-Diamineplatinum(Ii) Dichloride]
FP (mP) ([3]; ENZO Screenwell library): 61.9 mP | FP (mP) ([3]; LOPAC 1280 library): 56.6 mP

CC(C)CCCC(C)C1CCC2C3CC(NCCCNCCCCNCCCN)C4CC(O)CCC4(C)C3CCC12C (stereo not shown) [Claramine]
Decrease of myofibrilar ATPase activity [2]: 40–50% | T∆S (Ca2+-saturated cTnC): 5.21 ± 0.311 kcal/mol | ∆H (Ca2+-saturated cTnC): -1.1 ± 0.311 kcal/mol | Kd (Ca2+-saturated cTnC): 21.6 ± 1.8 µM | Effect on calcium sensitivity / force-pCa relation [4]: no or little effect | solubility ([5]; aqueous solutions, read-out: Solubility in aqueous solutions): > 25 mM | FP at higher drug concentrations [3]: sudden increase in the FP | FP (mP) ([3]; LOPAC 1280 library): 53.9 mP | Total fluorescence intensity of the assay mixture [3]: not affected | Effect on FP from the cTnC FAM-cTnIAR mixture [3]: decreased the FP | Effect on the interaction / binding affinity of cTnC for cTnIAR (cTnC-cTnIAR interaction): no or little effect

Cc1ccc2[nH]c(=O)c(C3=NN(C(=O)CCC(=O)O)C(c4ccc(Br)cc4)C3)c(-c3ccccc3)c2c1 (stereo not shown) [DQP 1105]
FP (mP) ([3]; TOCRIScreen library): 103 mP

COc1ccc(C(=O)N2CCCc3cc(C4=NNC(=O)SC4C)ccc32)cc1OC (stereo not shown) [EMD 57033]
Affinity (CcTnC): micromolar affinity | Effect on the CcTnC and cTnIAR interaction in vitro [6]: no significant effect

Cc1cn[nH]c1 [Fomepizole]
FP (mP) ([3]; ENZO Screenwell library): 118 mP

N=C(N)c1ccc(-c2ccc(-c3ccc(C(=N)N)cc3)o2)cc1 [Furamidine]
FP (mP) ([1]; LOPAC 1280 library): 91.8 mP | FP (mP) ([1]; TOCRIScreen library): 83.1 mP | Decrease of myofibrilar ATPase activity [2]: 40–50% | T∆S (Ca2+-saturated cTnC): 1.84 ± 0.72 kcal/mol | ∆H (Ca2+-saturated cTnC): -4.64 ± 0.758 kcal/mol | Kd (Ca2+-saturated cTnC): 11.9 ± 5.5 µM | Effect on calcium sensitivity / force-pCa relation [4]: slightly increased the calcium sensitivity | Effect on maximal isometric force development [4]: no effect | Steepness of the force-pCa relation (nH) [4]: no effect | solubility [5]: > 25 mM | FP at higher drug concentrations [3]: sudden increase in the FP | FP (mP) ([3]; TOCRIScreen library): 73.2 mP | Total fluorescence intensity of the assay mixture [3]: not affected | Effect on FP from the cTnC FAM-cTnIAR mixture [3]: decreased the FP | Effect on the interaction / binding affinity of cTnC for cTnIAR (cTnC-cTnIAR interaction): reduced by several orders of magnitude

CN(C)CCCn1cc(C2=C(c3c[nH]c4ccccc34)C(=O)NC2=O)c2ccccc21 [GF 109203X]
FP (mP) ([1]; TOCRIScreen library): 82.4 mP | FP (mP) ([3]; TOCRIScreen library): 104.5 mP

CCn1c(-c2nonc2N)nc2cnc(Oc3cccc(NC(=O)c4ccc(OCCN5CCOCC5)cc4)c3)cc21 [GSK 269962]
FP (mP) ([3]; TOCRIScreen library): 104.8 mP

CN(C)c1cc2c(Nc3ccc4c(cnn4Cc4ccccc4)c3)ncnc2cn1 [GW2974]
FP (mP) ([3]; LOPAC 1280 library): 117.8 mP

COc1ccc(-c2oc3c(CC=C(C)C)c(O)cc(O)c3c(=O)c2O)cc1 [Icaritin]
Effect on myofibrillar ATPase activity [2]: no effect | FP (mP) ([3]; LOPAC 1280 library): 64.6 mP | Effect on FP from the cTnC FAM-cTnIAR mixture [3]: decreased the FP

CC1Cc2ccccc2N1NC(=O)c1ccc(Cl)c(S(N)(=O)=O)c1 (stereo not shown) [Indapamide]
FP (mP) ([3]; ENZO Screenwell library): 116.5 mP

O=C(O)c1cccc(-c2ccc(-c3cn(C(=O)N4CCCCC4Cc4ccccc4)nn3)cc2)c1 (stereo not shown) [KT203]
Effect on myofibrillar ATPase activity [2]: no effect | FP (mP) ([3]; LOPAC 1280 library): 71.7 mP | Effect on FP from the cTnC FAM-cTnIAR mixture [3]: decreased the FP

O=C(O)c1ccc(-c2ccc(/C=C3\SC(=S)N(Cc4ccccc4)C3=O)o2)cc1 [Leukadherin-1]
FP (mP) ([3]; LOPAC 1280 library): 121.9 mP

O=C1c2c(O)ccc(O)c2C(=O)c2c(NCCNCCO)ccc(NCCNCCO)c21 [Mitoxantrone]
FP (mP) ([3]; LOPAC 1280 library): 57.1 mP

O=C(Nc1cccc(C(F)(F)F)c1)Nc1ccc(Br)cc1-c1nn[nH]n1 [NS3623]
FP (mP) ([1]; TOCRIScreen library): 121.6 mP | Effect on FP from a mixture of FAM-cTnISP and cTnC [1]: increased the FP | Effect on ATPase activity of cardiac myofibrils [2]: significantly increased the ATPase activity

NC(=O)N1c2ccccc2CC(=O)c2ccccc21 [Oxcarbazepine]
FP (mP) ([3]; ENZO Screenwell library): 70.9 mP

O=C(O)c1ccc(-c2ccccc2Nc2cccc(Cl)c2)cc1 [RPI-194]
Kd [7]: > 300 µM | Affinity (Ca2+-saturated cChimera): low micromolar affinity

CCOc1cc(CC(=O)N[C@@H](CC(C)C)c2ccccc2N2CCCCC2)ccc1C(=O)O [Repaglinide]
FP (mP) ([3]; TOCRIScreen library): 103.2 mP

N.N.N.N.N.N.N.N.N.N.N.N.N.N.[Cl-].[Cl-].[Cl-].[Cl-].[Cl-].[Cl-].[O-2].[O-2].[Ru+3].[Ru+3].[Ru+4] [Ruthenium red]
FP (mP) ([1]; LOPAC 1280 library): 83.7 mP | FP (mP) ([3]; LOPAC 1280 library): 44.3 mP

Oc1c2ccccc2c2c3c(cccc13)N=N2 [SP600125]
FP (mP) ([3]; LOPAC 1280 library): 65 mP

CCN1CCN(C(=O)Cc2ccc(Nc3ncc(F)c(Nc4ccc(C(=O)Nc5ccccc5Cl)cc4)n3)cc2)CC1 [TC-S 7010]
FP (mP) ([3]; TOCRIScreen library): 108.3 mP

N#CC(C#N)=C(N)/C(C#N)=C/c1ccc(O)cc1 [Tyrphostin AG 112]
FP (mP) ([3]; LOPAC 1280 library): 115.8 mP

C[C@]12C=CC(=O)C=C1CC[C@@H]1C2=CC[C@]2(C)[C@@H](C(=O)CN3CCN(c4cc(N5CCCC5)nc(N5CCCC5)n4)CC3)CC[C@@H]12.O=C(O)/C=C\C(=O)O [U-74389G maleate]
FP (mP) ([3]; LOPAC 1280 library): 115.3 mP

CCCC[P+](CCCC)(CCCC)Cc1ccc(NC(=O)[C@H](Cc2ccc3ccccc3c2)NC(=NC2CCCCC2)NC2CCCCC2)cc1.Cl.[Cl-] [WIN 64338 hydrochloride]
FP (mP) ([3]; TOCRIScreen library): 71 mP

Cl.c1ccc(C2CCCC2NC2=NCCCCCCCCCCC2)cc1 (stereo not shown) [cDPCP]
FP (mP) ([3]; LOPAC 1280 library): 67.5 mP

Colistin Sulfate
FP (mP) ([1]; ENZO Screenwell library): 78.5 mP | FP (mP) ([3]; ENZO Screenwell library): 71.7 mP

FAM-A162H-cTnISP: N-terminally FAM labelled A162H-mutated switch region peptide of human cardiac troponin I, sequence TLRRVRISADAMMQALLGARHKESLDLR
Kd [8]: ~10 µM
